Experimental data: article PMC9616786, “Structure and function of the N-terminal extension of the formin INF2” (Cellular and Molecular Life Sciences, 2022)

biological target: T1, purified CaM from bovine brain (Bos taurus, UniProt P62157); assay: Surface plasmon resonance, equilibrium binding of CaM to immobilized INF2 peptides; conditions: SPR, in the presence of Ca2+ (1 mM CaCl2), 25 °C; Fig. 4B-D, Fig. S3F
T1 construct: Calmodulin from bovine brain; purchased Sigma-Aldrich Cat#208694; host or cells: bovine brain (tissue-purified)
From the text: For use in surface plasmon resonance analysis, the peptide corresponding to amino acids 2-19 of human INF2 and similar peptides with replacements in the W11, L14 and L18 residues were synthesized in an automated multiple peptide synthesizer (Multipep, Intavis, Köln, Germany) in the Proteomics Facility of the Centro Nacional de Biotecnología (CSIC, Madrid). The INF2 2–36 peptide was obtained as a bespoke product with the same modifications from pepMic (Suzhou, China). These peptides contained two G residues at its N terminus to separate the INF2 sequence from an additional N-terminal end K residue, which was biotinylated in the ε-amino group. For use in NMR studies, the INF2 2–36 and 2-19 peptides were synthesized to order, without any modification, by CASLO ApS (Denmark). All the peptides were synthesized using the solid-phase synthetic procedures and standard Fmoc [N-(9-fluorenyl)methoxycarbonyl] chemistry, and then underwent reverse-phase HPLC purification.
All surface plasmon resonance experiments were carried out at 25 °C in a Biacore 3000 (Cytiva) robotic biosensor. Analyses were performed using HBSP (10 mM HEPES pH 7.4, 150 mM NaCl, 0.005% surfactant P20) supplemented with 1 mM CaCl2 as running buffer and for the dilution of analytes and ligands. Biotinylated peptides were individually immobilized on a streptavidin-coated sensor chip in flow cells 2, 3 and 4 at a flow rate of 10 µl/min (20–50 RU captured). The empty flow cell 1 was used as a control for non-specific binding and bulk effects. Purified CaM was injected at different concentrations ranging from 13.2 nM to 9.6 µM in duplicate, at a flowrate of 50 µl/min, with an association time of 60 s followed by dissociation for 60 s. After that, the sensor chip was regenerated by injection of 10 mM glycine–HCl, pH 1.7, with a contact time of 12 s. […] Sensorgrams with different concentrations of CaM were overlaid, aligned and analyzed with BIAevaluation Software 4.1, using the double-reference method. […]

| Sequence | affinity / interaction with CaM relative to the intact 2-19 peptide (in words) |
| --- | --- |
| KGGSVKEGAQRKWAAAKEKAG [L14L18A 2-19 peptide, 2-19 INF2 peptide with the double L14L18A mutation] | reduced affinity |
| KGGSVKEGAQRKAAAAKEKAG [Peptide W11L14L18A, 2-19 INF2 peptide with the triple W11L14L18A mutation] | undetectable |
| KGGSVKEGAQRKAAALKEKLG [Peptide W11A, 2-19 INF2 peptide with the W11A mutation] | undetectable |
